# In patent US20140328771A1, “METHOD FOR PRODUCING 3-MENTHOXY PROPANOL AND COMPOSITIONS FOR IMPARTING COOLING SENSATION” (Takasago International Corporation, priority 2011, published 2014):
# Assay: Oral sensory evaluation of 50-ppm aqueous solutions by ten special panelists
# Assay type: in vivo, human
# Conditions: 50-ppm aqueous solution
# Procedure: Using 3-1-menthoxy-1-propanol (1) obtained in Example 1, the mixture (2) of 3-1-menthoxy-1-propanol and 1-1-menthoxy-2-propanol at a weight ratio of 93:7 obtained in Example 2, and 1-1-menthoxy-2-propanol (3) obtained in Example 1, 50-ppm aqueous solutions were prepared.
# The three 50-ppm aqueous solutions were subjected to oral sensory evaluation by ten special panelists with five or more years of experience.
compound,measurement,setting,value
"CC1CCC(C(C)C)C(OCCCO)C1 (centres unmarked) [(1), 3-1-menthoxy-1-propanol]",refreshing sensation,all the ten panelists,marked refreshing sensation
same,strength and persistence of refreshing sensation,seven of the ten panelists,stronger and long-lasting refreshing sensation
